Tested on: Hepa1-6 cells
Experiment: Factor IX production by ELISA in Hepa1-6 cells treated with topoisomerase inhibitor and FIX donor AAV (integration at albumin locus)
Format: cell-based, mouse
Details: 0.5-5 uM inhibitor, FIX measured at days 4 and 7
Experimental: For instance, one-hundred thousand Hepa1-6 cells were seeded per well of a 24-well dish and grown until 70% confluent in DMEM+10% FBS. […] Cells were then transfected with one of two Factor IX (FIX)-containing adeno-associated viruses (AAVs) donors (e.g., AAV2/6 vectors at 6e10 vg per sample) and Factor IX production on days 0-4 (day 4) and days 5-7 (day 7) assayed by ELISA.
The FIX donor AAVs contain homology arms (complementary to the 3′ end of the mouse albumin gene) flanking an albumin 3′ intron splice acceptor-albumin 3′ exon-2A-Factor IX cassette. In one instance, the Factor IX cassette was positioned in the forward orientation (F), allowing Factor IX to be produced if the DNA was integrated into the Albumin locus through HDR by the use of the homology arms.
Therefore, we determined the stimulation of Factor IX integration/expression that is specific to integration at the albumin gene in the proper orientation; this number is roughly equal to the Factor IX produced from the forward-orientation virus minus the Factor IX produced by the reverse-orientation virus.

SMILES: CC[C@@]1(O)C(=O)OCc2c1cc1n(c2=O)Cc2cc3ccccc3nc2-1 [camptothecin]
- FIX protein (forward-orientation AAV donor) (human FIX AAV donor in forward (F) orientation): dose-dependent increase in FIX protein
- FIX protein (reverse-orientation AAV donor) (human FIX AAV donor in reverse (R) orientation): generally not
